# Test results reported in ChEMBL document CHEMBL1201862, “PubChem BioAssay data set” (2004).
# Activity calls are given as the source filed them.
# Columns and labels:
# [1] = target: T1, Voltage-gated N-type calcium channel alpha-1B subunit/Amyloid beta A4 precursor protein-binding family A member 1 (Homo sapiens, UniProt Q00975+Q02410); format: protein assay
# [2] = target: T1, Voltage-gated N-type calcium channel alpha-1B subunit/Amyloid beta A4 precursor protein-binding family A member 1; format: protein assay; remark: listed apart in the source
# [3] = A cytotoxicity screen of small molecule inhibitors of the PhoP region in Salmonella typhi identified in the primary screen. [Related pubchem assays: 1850, 1864, 1985 ]; format: functional
# [4] = target: T2, Epstein-Barr nuclear antigen 1 (Epstein-Barr virus (strain B95-8) (HHV-4) (Human herpesvirus 4), UniProt P03211); experiment: EBNA-1 inhibitors, dose response, biochemical, fluorescence polarization, 1536-well (AID 2381); parameters: species or system human gammaherpesvirus 4;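 note: fluorescence polarization of a Cy5 DNA probe bound by EBNA-1 protein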
# T2 sequence (P03211 whole entry): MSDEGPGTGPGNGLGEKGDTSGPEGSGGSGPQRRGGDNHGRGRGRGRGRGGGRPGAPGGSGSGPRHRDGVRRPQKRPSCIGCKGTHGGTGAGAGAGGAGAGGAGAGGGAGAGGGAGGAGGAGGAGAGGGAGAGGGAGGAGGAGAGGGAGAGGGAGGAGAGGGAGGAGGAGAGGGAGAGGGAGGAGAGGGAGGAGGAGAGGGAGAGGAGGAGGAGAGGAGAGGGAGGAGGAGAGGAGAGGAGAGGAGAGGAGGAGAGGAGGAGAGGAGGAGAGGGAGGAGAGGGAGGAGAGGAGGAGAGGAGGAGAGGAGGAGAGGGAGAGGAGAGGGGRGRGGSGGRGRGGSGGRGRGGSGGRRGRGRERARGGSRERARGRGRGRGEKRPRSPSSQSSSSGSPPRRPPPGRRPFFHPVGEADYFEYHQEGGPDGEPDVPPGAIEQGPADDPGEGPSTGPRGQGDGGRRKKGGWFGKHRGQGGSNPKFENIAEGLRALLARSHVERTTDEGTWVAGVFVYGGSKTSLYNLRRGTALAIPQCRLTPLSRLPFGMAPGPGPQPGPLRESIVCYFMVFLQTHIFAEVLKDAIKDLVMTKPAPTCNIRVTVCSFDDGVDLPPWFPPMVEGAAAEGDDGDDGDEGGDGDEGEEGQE
# [5] = target: T3, Lytic switch protein BZLF1 (Epstein-Barr virus (strain B95-8) (HHV-4) (Human herpesvirus 4), UniProt P03206); experiment: EBV ZTA inhibitors, dose response, counter-screen for EBNA-1 inhibitor project, biochemical, fluorescence polarization, Epstein-Barr virus, 1536-well (AID 2377); parameters: species or system human gammaherpesvirus 4;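 note: fluorescence polarization of Cy5-labelled ZRE DNA probe bound by purified Zta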
# T3 sequence (P03206 whole entry): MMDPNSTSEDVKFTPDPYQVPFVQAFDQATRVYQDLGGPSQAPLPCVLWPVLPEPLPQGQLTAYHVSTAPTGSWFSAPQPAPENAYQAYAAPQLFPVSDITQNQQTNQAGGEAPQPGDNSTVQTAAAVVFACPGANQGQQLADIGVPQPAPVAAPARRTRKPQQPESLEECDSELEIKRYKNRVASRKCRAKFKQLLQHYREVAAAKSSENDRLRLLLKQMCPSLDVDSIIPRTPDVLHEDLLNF
# H9c2 = experiment: cells; format: functional, cell-based; conditions: Rattus norvegicus, H9c2, Myocardium;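 note: confirmatory concentration-response retest of ultra-high-throughput screening hits for modulation of myocardial damage; cell death induced by hydrogen peroxide oxidative stress; compound pretreatment for 60 min then peroxide exposure for 2 h; potency is for protecting the cells against peroxide damage rather than for killing them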
# [6] = target: T4, Short transient receptor potential channel 4 (Mus musculus, UniProt Q9QUQ5); experiment: mouse TRPC4 channel inhibitors, dose response, cell-based, HEK293 TRPC4/mu-opioid, Fluo-4 calcium (AID 434942); format: functional;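 note: potency of inhibitors blocking the TRPC4 calcium response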
# T4 sequence (Q9QUQ5 whole entry): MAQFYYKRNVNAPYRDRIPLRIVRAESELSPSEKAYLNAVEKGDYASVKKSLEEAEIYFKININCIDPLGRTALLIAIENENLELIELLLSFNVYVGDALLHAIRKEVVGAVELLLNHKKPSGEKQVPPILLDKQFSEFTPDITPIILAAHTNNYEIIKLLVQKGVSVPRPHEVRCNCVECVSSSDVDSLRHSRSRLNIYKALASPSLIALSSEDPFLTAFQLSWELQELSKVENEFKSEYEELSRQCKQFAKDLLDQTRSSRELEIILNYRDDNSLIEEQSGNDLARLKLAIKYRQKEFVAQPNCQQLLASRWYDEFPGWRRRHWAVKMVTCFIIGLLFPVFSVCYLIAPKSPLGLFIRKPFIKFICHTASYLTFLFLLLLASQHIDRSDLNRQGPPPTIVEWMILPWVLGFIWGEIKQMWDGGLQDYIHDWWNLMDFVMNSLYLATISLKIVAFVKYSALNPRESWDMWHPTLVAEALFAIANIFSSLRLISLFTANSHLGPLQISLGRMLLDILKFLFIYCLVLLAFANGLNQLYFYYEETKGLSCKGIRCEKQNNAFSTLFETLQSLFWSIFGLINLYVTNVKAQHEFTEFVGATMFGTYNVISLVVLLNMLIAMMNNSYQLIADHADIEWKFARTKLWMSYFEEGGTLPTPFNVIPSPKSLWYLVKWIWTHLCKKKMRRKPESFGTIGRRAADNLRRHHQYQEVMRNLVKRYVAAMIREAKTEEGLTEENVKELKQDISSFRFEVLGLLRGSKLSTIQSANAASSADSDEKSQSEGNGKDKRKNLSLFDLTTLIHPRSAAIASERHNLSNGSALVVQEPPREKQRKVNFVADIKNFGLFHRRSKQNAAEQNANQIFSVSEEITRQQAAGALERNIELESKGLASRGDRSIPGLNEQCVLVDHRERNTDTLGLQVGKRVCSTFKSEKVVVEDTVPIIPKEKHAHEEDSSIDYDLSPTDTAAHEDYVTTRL
# [7] = target: Eukaryotic translation initiation factor 4E (Mus musculus, UniProt P63073); experiment: eIF4E–eIF4G protein interaction inhibitors, dose response, biochemical, TR-FRET (AID 855); format: functional;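 note: potency for disrupting eIF4E binding to eIF4GI seen as loss of FRET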
# Sequence of Eukaryotic translation initiation factor 4E (P63073 whole entry): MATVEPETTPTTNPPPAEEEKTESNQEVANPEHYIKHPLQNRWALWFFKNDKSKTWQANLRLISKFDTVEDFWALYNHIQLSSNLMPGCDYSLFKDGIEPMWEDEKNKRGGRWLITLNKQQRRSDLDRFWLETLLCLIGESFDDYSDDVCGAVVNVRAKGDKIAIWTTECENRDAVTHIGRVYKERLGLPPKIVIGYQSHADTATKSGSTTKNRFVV
# H4 = experiment: Luminescence Cell-Based Dose Response HTS to Identify Activators of 5'UTR Stem-Loop Driven Prion Protein mRNA Translation in H4 Neuroglioblastoma Cells. [Related pubchem assays: 1829 (Project Summary), 1814 (Primary HTS)]; format: functional; conditions: Homo sapiens
# [8] = Luminescence Cell-Based Dose Confirmation HTS to Identify Activators of 5'UTR Stem-Loop Driven Alpha-Synuclein mRNA Translation in H4 Neuroglioblastoma Cells. [Related pubchem assays: 1829 (Project Summary), 1814 (Primary HTS)]; format: functional
# [9] = Luminescence Cell-Based Dose Response HTS to Identify Activators of Luciferase Translation or Activity in H4 […] Cells. [Related pubchem assays: 1829 (Project Summary), 1814 (Primary HTS)]; format: functional
# [10] = target: T5, Nucleotide-binding oligomerization domain-containing protein 1 (Homo sapiens, UniProt Q9Y239); experiment: NOD1 signaling inhibitors, SAR follow-up, revised (AID 2333); format: functional
# T5 sequence (Q9Y239 whole entry): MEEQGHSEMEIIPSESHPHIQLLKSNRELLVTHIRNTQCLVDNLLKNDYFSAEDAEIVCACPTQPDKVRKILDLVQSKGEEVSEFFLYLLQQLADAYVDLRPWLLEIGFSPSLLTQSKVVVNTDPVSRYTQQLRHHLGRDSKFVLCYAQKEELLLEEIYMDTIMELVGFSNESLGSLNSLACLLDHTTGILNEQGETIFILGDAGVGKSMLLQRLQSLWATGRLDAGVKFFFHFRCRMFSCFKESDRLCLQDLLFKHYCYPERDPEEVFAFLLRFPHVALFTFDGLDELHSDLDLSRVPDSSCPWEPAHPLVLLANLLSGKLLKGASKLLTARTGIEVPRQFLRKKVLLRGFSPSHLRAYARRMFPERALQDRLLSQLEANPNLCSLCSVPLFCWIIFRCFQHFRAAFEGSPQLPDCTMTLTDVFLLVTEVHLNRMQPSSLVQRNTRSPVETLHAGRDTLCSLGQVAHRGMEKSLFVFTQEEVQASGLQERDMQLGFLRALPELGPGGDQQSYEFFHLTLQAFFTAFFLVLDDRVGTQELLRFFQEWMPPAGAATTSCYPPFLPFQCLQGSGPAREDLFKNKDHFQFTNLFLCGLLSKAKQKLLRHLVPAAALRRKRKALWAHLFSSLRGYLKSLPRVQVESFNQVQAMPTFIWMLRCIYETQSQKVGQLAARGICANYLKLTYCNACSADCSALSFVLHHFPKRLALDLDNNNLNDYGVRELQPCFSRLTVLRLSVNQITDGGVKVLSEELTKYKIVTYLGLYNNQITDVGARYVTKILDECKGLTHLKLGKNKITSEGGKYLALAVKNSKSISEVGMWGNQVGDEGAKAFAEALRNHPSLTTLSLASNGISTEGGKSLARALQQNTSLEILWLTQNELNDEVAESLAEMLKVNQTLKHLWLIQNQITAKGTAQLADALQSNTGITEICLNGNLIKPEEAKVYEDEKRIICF
# Tumor necrosis factor = Tumor necrosis factor (Homo sapiens, UniProt P01375); experiment: TNFa-triggered NF-kB activation inhibitors, SAR follow-up, cell-based, revised (AID 2337); format: functional
# Sequence of Tumor necrosis factor (P01375 whole entry): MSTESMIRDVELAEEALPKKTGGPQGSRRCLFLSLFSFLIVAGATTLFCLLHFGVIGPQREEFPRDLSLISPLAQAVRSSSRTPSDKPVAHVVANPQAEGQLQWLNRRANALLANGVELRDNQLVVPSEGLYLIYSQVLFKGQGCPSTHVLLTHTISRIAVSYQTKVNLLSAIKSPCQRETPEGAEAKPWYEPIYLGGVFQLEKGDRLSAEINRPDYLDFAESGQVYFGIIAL
# HEK293 = experiment: cells; conditions: Homo sapiens;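 note: cells exposed to compound for 14 hours overnight before viability readout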
# fMet-Leu-Phe receptor = target: T6, fMet-Leu-Phe receptor (Homo sapiens, UniProt P21462); experiment: FPR ligands, dose response (AID 519); format: functional
# T6 sequence (P21462 whole entry): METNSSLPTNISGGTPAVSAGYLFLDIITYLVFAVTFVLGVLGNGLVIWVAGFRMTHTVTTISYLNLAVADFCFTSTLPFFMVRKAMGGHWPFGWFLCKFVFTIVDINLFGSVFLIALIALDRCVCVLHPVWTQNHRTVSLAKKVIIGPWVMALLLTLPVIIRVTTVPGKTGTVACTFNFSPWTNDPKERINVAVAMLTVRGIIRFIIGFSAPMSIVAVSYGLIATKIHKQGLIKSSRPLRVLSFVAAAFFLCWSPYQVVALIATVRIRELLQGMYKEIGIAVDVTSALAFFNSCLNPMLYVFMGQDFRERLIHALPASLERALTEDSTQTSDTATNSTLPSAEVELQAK
# [11] = A Cell Based Secondary Assay To Explore Cytotoxicity of Compounds that Sensitize Mycobacterium Tuberculosis to Beta-Lactam Antibiotics.; format: functional
# Estrogen receptor = target: T7, Estrogen receptor (Homo sapiens, UniProt P03372);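 note: potency for inhibiting coactivator peptide recruitment to the receptor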
# T7 sequence (P03372 whole entry): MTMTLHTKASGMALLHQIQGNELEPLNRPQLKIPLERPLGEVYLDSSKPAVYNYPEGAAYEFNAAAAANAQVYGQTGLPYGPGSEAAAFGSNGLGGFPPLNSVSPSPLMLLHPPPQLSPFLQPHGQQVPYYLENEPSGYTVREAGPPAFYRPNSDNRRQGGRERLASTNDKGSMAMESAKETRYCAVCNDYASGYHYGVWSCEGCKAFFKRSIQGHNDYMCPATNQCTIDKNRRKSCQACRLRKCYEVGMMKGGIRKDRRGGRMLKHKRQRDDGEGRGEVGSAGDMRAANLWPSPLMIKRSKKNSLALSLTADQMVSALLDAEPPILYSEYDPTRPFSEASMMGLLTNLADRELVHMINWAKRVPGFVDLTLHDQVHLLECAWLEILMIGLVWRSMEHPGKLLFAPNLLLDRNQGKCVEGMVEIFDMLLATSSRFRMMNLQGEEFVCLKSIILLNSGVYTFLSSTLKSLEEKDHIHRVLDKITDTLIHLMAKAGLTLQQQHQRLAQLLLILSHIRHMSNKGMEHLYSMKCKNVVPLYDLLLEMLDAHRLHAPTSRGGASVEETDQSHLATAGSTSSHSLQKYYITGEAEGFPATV
# T1 sequence (Q00975 whole entry): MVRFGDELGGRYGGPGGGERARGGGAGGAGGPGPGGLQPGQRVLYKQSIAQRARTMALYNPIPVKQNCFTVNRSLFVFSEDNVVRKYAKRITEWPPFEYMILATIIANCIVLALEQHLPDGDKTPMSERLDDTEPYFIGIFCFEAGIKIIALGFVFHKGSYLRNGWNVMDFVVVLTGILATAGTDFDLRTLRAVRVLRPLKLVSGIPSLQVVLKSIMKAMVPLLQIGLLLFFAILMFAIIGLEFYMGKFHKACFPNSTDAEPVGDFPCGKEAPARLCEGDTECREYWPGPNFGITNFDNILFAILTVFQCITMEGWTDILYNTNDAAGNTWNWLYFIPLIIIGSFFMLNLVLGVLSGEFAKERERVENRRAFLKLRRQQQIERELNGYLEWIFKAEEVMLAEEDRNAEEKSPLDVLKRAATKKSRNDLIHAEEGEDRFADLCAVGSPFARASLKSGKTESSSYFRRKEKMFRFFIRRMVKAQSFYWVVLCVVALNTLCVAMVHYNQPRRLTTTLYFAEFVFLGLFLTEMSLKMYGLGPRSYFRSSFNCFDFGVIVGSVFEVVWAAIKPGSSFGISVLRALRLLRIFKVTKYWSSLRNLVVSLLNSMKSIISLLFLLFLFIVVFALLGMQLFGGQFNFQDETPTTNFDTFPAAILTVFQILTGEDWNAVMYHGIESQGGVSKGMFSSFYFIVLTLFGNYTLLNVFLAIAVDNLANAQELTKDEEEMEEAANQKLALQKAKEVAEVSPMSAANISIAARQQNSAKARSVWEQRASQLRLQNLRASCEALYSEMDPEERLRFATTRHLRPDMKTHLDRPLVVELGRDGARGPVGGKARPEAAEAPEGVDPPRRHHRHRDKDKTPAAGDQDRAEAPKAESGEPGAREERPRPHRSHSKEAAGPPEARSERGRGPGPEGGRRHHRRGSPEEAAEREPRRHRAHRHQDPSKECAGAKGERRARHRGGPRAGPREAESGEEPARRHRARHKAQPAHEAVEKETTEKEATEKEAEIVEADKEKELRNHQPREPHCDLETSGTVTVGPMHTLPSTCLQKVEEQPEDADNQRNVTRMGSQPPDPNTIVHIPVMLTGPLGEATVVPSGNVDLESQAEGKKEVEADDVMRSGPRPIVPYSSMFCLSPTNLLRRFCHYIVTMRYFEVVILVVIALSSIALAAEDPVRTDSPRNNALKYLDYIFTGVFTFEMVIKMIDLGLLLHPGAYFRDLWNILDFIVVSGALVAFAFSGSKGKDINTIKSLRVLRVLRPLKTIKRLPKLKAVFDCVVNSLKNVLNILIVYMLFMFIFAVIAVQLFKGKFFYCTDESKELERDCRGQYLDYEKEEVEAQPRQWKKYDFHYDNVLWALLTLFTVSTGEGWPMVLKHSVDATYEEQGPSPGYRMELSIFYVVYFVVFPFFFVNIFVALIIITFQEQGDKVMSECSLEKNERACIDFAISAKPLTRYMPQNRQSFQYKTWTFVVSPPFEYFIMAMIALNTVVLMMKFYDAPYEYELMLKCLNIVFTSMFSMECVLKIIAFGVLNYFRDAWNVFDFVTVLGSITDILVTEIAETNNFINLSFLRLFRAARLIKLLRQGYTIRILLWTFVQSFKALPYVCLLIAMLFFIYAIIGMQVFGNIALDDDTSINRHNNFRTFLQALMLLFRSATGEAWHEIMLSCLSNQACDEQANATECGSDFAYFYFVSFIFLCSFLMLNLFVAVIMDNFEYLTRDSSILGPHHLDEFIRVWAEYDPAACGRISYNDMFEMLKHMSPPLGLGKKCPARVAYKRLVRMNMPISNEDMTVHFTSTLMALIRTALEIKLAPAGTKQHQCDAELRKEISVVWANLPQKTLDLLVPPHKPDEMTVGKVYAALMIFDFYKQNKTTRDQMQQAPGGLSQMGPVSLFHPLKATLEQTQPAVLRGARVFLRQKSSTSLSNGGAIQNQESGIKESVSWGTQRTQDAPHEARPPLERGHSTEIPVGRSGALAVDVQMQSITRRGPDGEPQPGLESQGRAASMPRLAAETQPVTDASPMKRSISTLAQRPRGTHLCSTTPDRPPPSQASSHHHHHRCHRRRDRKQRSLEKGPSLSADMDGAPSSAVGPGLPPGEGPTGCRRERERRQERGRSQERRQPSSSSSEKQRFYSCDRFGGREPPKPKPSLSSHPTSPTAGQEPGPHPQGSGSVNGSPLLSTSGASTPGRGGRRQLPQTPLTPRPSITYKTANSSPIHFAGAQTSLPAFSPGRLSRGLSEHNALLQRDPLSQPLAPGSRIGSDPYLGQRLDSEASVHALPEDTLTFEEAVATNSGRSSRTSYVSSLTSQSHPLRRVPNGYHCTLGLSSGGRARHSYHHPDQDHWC
# T1 sequence (Q02410 whole entry): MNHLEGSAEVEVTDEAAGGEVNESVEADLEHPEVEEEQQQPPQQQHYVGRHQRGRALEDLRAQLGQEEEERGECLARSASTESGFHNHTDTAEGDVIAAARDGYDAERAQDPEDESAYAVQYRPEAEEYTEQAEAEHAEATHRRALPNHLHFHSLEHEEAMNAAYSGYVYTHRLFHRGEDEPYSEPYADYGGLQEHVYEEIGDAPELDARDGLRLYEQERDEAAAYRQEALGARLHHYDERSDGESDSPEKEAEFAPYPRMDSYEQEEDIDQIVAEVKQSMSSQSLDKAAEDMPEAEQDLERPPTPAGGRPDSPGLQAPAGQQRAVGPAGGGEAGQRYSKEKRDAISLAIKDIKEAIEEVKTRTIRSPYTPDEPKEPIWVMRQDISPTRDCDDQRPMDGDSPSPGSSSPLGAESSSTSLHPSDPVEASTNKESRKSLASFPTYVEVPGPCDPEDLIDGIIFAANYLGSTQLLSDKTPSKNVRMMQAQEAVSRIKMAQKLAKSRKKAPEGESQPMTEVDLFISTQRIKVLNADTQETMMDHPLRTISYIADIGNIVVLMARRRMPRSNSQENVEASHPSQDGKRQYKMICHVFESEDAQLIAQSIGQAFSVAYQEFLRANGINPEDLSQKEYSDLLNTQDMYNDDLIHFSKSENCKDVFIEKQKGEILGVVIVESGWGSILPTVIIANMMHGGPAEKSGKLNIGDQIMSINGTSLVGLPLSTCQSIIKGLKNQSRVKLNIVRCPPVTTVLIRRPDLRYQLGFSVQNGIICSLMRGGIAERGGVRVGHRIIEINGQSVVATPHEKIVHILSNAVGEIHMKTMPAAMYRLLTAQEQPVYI
structure (smiles),measurement,setting,value
Cc1cccc(NC(=S)NC2CCCCC2)n1,IC50,[1],> 50 µM (inactive)
same,IC50,[2],9.58 µM (active)
COc1ccc(/C=C2\SC(=S)N(CC(=O)NNC(=O)c3ccncc3)C2=O)cc1,IC50,[1],> 50 µM (inactive)
same,IC50,[2],> 56.8 µM (not active)
C/C(=N\NC(=O)c1c(Br)c(C)nn1C)c1ccc(NC(=O)c2ccoc2C)cc1,EC50,[3],> 50 µM (active)
same,IC50,[4],15.7 µM (not active)
same,IC50,[5],> 111 µM (not active)
same,IC50,H9c2,> 79 µM (inactive)
CC12CC3(C)CC(C)(C1)CC(NC(=O)N1CCCC1)(C2)C3,EC50,[6],7.5 µM (active)
COc1ccc(CCNC2CCCCC2)cc1,EC50,[3],> 50 µM (active)
COc1ccc(Sc2nc(-c3ccccc3)ncc2C(=O)O)cc1,EC50,[6],5.96 µM (active)
CSc1ccccc1NC(=O)c1ccccc1C,IC50,[7],50 µM (inactive)
COc1ccc(S(=O)(=O)N2CCC(C(=O)NCc3cccc(OC)c3)CC2)cc1,IC50,[7],> 64 µM (inactive)
CCOC(=O)c1ccc(N2Cc3ccccc3/C2=N\C(=O)c2cccc([N+](=O)[O-])c2)cc1,EC50,[3],> 50 µM (active)
same,EC50,H4,6.09 µM (active)
same,EC50,[8],39.1 µM (active)
same,EC50,[9],12.3 µM (active)
COc1ccc(CNC2=NC(=O)CC(C(=O)Nc3ccc(F)cc3)S2)cc1 (stereo unspecified),IC50,[7],> 64 µM (inactive)
CCCCn1cnc2cc(NCc3cccc(OC)c3O)ccc21,EC50,[3],> 50 µM (active)
COC/C=C/C1=CC2=CC(=O)C(C)(OC(=O)c3cnc4ccccc4n3)C(=O)C2=CN1c1ccc(CO)cc1 (stereo unspecified),IC50,[1],11.2 µM (active)
same,IC50,[2],10.4 µM (active)
O=C(CSc1nc2scc(-c3ccccc3)c2c(=O)[nH]1)Nc1ccc(C(F)(F)F)cc1,IC50,[10],1.65 µM (active)
same,IC50,Tumor necrosis factor,0.752 µM (active)
same,IC50,HEK293,10.3 µM (active)
COc1ccc(C2CC2/C(=N/O)c2ccccc2)cc1 (stereo unspecified),EC50,[6],2.99 µM (active)
N#Cc1c(C(F)(F)F)cc(-c2ccccc2)nc1SCc1nc(N)nc(N2CCOCC2)n1,Ki,fMet-Leu-Phe receptor,> 66.7 µM (inactive)
same,CC50,[11],> 40 µM (active)
same,IC50,Estrogen receptor,> 50 µM (not active)
C/C=C/C=C\C(=O)Nc1cccc(C2=NOC3(C2)C[C@H](C(N)=O)N(C(=O)/C=C/C)C3)c1 (stereo partly specified),IC50,[1],6.79 µM (active)
same,IC50,[2],9.88 µM (active)
O=C(Nc1ccnn1C1CCN(CCCC2CCCC2)CC1)c1ccccc1Cl,EC50,[6],1.68 µM (active)
